Measurements reported in patent US20240299420A1, “TETRACYCLINE DERIVATIVE-INDUCED MITOHORMESIS MEDIATES DISEASE TOLERANCE AGAINST VIRAL INFECTIONS” (priority 2021, published 2024).
“Also recorded” adds a separate entry of the source.

Tests used:
IFV H1N1 PR8 strain [1] = test: IFV infection in BALB/cN mice, 175 PFU, preventive treatment; format: in vivo, mouse; details: for survival (mice recovering): Dox 40 mpkd or 9-TB 1 mpkd daily i.p., all control mice dead by day 11
HEK293T cells [2] = test: Oxygen consumption rate in HEK293T cells (Seahorse XF96); format: cell-based, human; details: 24 h, compared with Dox
Experimental: B. Oxygen consumption rate of HEK293T cells exposed to different concentrations of Dox, 9-TB, or ATc (n=8). […] Error bars represent standard error mean (SEM).
HEK293T (Human embryonic kidney 293T) cells were purchased from ATCC and have been routinely checked in the laboratory for mycoplasma contamination with the MycoProbe detection kit (R&D systems). HEK293T were grown at 37° C. in a humidified atmosphere of 5% CO2/95% air in DMEM medium with 4.5 g/L glucose (Gibco) including 10% FBS (Gibco), 1× nonessential amino acids (Invitrogen) and 5 mM penicillin/streptomycin (Invitrogen). Cells were treated for 24 h with the indicated doses of compounds 24 hours after seeding. Oxygen consumption rate was measured with the Seahorse XF96 instrument (Seahorse Bioscience) according to the manufacturer's protocol.

E. coli = test: Minimum inhibitory concentration (MIC) of bacterial growth; format: cell-based; details: compared with Dox
gut bacterial community = details: Dox 40 mpkd; for gut bacterial community composition (perMANOVA, NMDS): after 3 and 6 days of treatment, 9-TB 1 mpkd, vs untreated mice
P. aeruginosa = test: Minimum inhibitory concentration (MIC) of bacterial growth; format: cell-based; details: compared with Dox
IFV H1N1 PR8 strain [3] = test: IFV infection in BALB/cN mice, 760 PFU, therapeutic treatment; format: in vivo, mouse; details: 9-TB 0.025 and 0.05 mpkd from day 1 post-inoculation, trend, not significant
Source text: A. Comparison of bacterial community composition by nonmetric multidimensional scaling (NMDS) based on the Bray-Curtis dissimilarity. B. Comparison of bacterial species diversity in terms of Shannon diversity index (SDI) and richness. Statistical significance assessed by Kruskal-Wallis test and post-hoc Wilcoxon test with p-value adjusted for multiple comparison using the Holm-Bonferroni method. ‘****’: p<0.0001, ‘***’: p<0.001, ‘**’: p<0.01, ‘*’: p<0.05, ‘ns’: p>0.05. C-D. 8-weeks old BALB/cN mice (n=12) were infected intranasally with 760 PFU of IFV-A H1N1 PR8 and injected with 9-TB (0.05, 0.025 mpkd). Survival (C) and clinical score (D) were followed for 14 days post-infection (n=12). Statistical analysis was performed by ANOVA followed by Tukey post-hoc test (*p≤0.05, **p≤0.01, ***p≤0.001). For survival curves, statistical analysis was performed by Log-rank (Mantel-Cox) test (*p≤0.05, **p≤0.01, ***p≤0.001). Error bars represent standard error mean (SEM).
A. Descriptive scheme of the mouse IFV infection experiment depicted in FIG. 5C-D, S5B. B. 8-weeks old BALB/cN mice (n=12) were infected intranasally with 760 PFU of IFV-A H1N1 PR8 and injected with 9-TB (0.05, 0.025 mpkd). Body weight was followed for 14 days post-inoculation (n=12). C. […]

[4] = system: IFV-A H1N1 PR8 infected BALB/cN mice; test: RNA-Seq and GSEA of lung, liver and kidney of IFV infected mice (175 PFU, day 7)
IFV H1N1 PR8 strain [5] = test: IFV infection in BALB/cN mice, 1000 PFU, preventive treatment; format: in vivo, mouse; details: Dox 50 mpkd
HEK293T cells [6] = test: Mitonuclear protein imbalance (MTCO1/ATP5A immunoblot) in HEK293T cells; format: cell-based, human; details: 24 hours, stronger than Dox
Experimental: The mitonuclear protein imbalance may be determined by a disbalanced ratio between a mitochondrial-encoded gene (e.g. MTCO1) versus a nuclear-encoded gene (e.g. ATP5A) of OXPHOS subunits as is illustrated by FIG. 3A.
A. Immunoblots of HEK293T cells for the OXPHOS subunits ATP5A (encoded in nuclear DNA) and MTCO1 (encoded in mitochondrial DNA) with TUBULIN serving as a control. Quantification of the relative MTCO1/ATP5A ratio is shown on the right. […] Statistical analysis was performed by ANOVA followed by Tukey post-hoc test (*p≤0.05, **p≤0.01, ***p≤0.001). Error bars represent standard error mean (SEM).
HEK293T (Human embryonic kidney 293T) cells were purchased from ATCC and have been routinely checked in the laboratory for mycoplasma contamination with the MycoProbe detection kit (R&D systems). […]
Tissues and cells were lysed using RIPA buffer (50 mM Tris-HCl pH 7.4, 150 mM NaCl, 1% NP-40, 0.5% Na-deoxycholate, 0.1% SDS, 2 mM EDTA, and 50 mM NaF) supplemented with protease and phosphatase inhibitor cocktails (Roche/Thermo Fisher Scientific). […] Protein concentration was determined by the Lowry method. […] Samples were analyzed by immunoblotting using standard procedures.

[7] = system: hsp-6::gfp reporter (UPR^mt); format: in vivo, Caenorhabditis elegans; details: microfluidic device; relative to Dox and cco-1 RNAi
[8] = system: mouse bone marrow derived macrophages (BMDM); test: IFNβ measurement in BMDM culture medium (ELISA); format: cell-based; details: 24 hours, 9-TB 1.88 μg/ml, ATc 3.75 and 7.5 μg/ml vs Dox 7.5-15 μg/ml
HEK293T cells [9] = test: MSR gene transcripts by RT-qPCR in HEK293T cells; format: cell-based, human; details: 24 h, compared with Dox
Experimental: Transcript levels of the indicated MSR genes measured by RT-qPCR (n=4).
HEK293T (Human embryonic kidney 293T) cells were purchased from ATCC and have been routinely checked in the laboratory for mycoplasma contamination with the MycoProbe detection kit (R&D systems). HEK293T were grown at 37° C. in a humidified atmosphere of 5% CO2/95% air in DMEM medium with 4.5 g/L glucose (Gibco) including 10% FBS (Gibco), 1× nonessential amino acids (Invitrogen) and 5 mM penicillin/streptomycin (Invitrogen). Cells were treated for 24 h with the indicated doses of compounds 24 hours after seeding.
RNA from cells and tissues was extracted using TRIzol and then reverse-transcribed into cDNA by the QuantiTect Reverse Transcription Kit (Qiagen) following the manufacturer's instructions. The qPCR reactions were performed using the LightCycler 480 II system and SYBR Green qPCR Master mix (Roche). All results are presented relative to the mean of housekeeping genes (ΔΔCt method). All mRNA expression levels were corrected for expression of the housekeeping gene 36B4 or Actb for samples of mouse origin, ACTB for samples of human origin.

[10] = system: hsp-6::gfp reporter (UPR^mt); format: in vivo, Caenorhabditis elegans; details: for UPR^mt activation (hsp-6::gfp reporter): 68 µM, 9-TB at 17 μM; for induction of MSR and in particular mitohormesis: summary of screen of 51 tetracycline derivatives
[11] = system: mouse bone marrow derived macrophages (BMDM); test: ISG and MSR gene transcripts by RT-qPCR in BMDM; format: cell-based; details: 24 hours, 9-TB 1.88 μg/ml, ATc 3.75 and 7.5 μg/ml vs Dox 7.5-15 μg/ml
germ-free C57BL/6J mice = format: in vivo, mouse; details: Dox 500 mpkd in drinking water, 16 days, vs control
Source text: B. Volcano plots displaying-log(adj. p-value) and the log fold change (FC) in expression of genes in kidney and liver. Above the graph, the number of differentially expressed genes is indicated (genes with adjusted p value (adj.pval)<0.05). C. […] E. Immunoblots of phosphorylated elF2α (pelF2α) and total elF2α and quantification in liver of Dox-treated germ-free mice.
Body weight at the time of the sacrifice was not different between the control and Dox-treated animals (FIG. 7A), indicating the absence of obvious adverse effects. […] Dox elicited organ-specific transcriptional responses, with the expression of remarkably more genes and different being affected in the kidney compared to the liver (FIG. 7B-C). […] The MSR features the induction of mitochondrial chaperones and proteases, such as Hspa9 and Lonp1, as well as of enzymes mediating adaptation to nutrient deprivation, such as asparagine synthetase (ASNS), which were increased at both the transcript and protein levels (FIG. 1C-D). […] Dox-treated germ-free mice kidneys thus gathered the typical attributes of the ATF4-ISR, a hallmark of the mammalian response to mitochondrial stress.
Male 9 weeks-old C57BL/6J mice were treated for 16 days with 500 mg/kg/day doxycycline hyclate (Sigma) in drinking water. Mice were housed with ad libitum access to water and food and kept under a 12-hour dark/12-hour light cycle. […]

## C[C@H]1c2ccc(C(C)(C)C)c(O)c2C(O)=C2C(=O)[C@]3(O)C(O)=C(C(N)=O)C(=O)[C@@H](N(C)C)[C@@H]3[C@@H](O)[C@@H]21 [9-TB, 9-tert-butyl-doxycycline]
IFV H1N1 PR8 strain [1]
  survival (mice recovering): 50%
IFV H1N1 PR8 strain [1]; day 7 post infection, Dox 40 mpkd, 9-TB 1 mpkd
  viral titer in the lung tissue: no significant difference in viral titer
HEK293T cells [2]
  basal oxygen consumption rate (OCR): reduced basal oxygen consumption rate (OCR) in a dose-dependent and more pronounced fashion than Dox
E. coli
  MIC for E. coli: significantly higher MIC
Gut bacterial community
  gut bacterial community composition (perMANOVA, NMDS): no differences were observed
P. aeruginosa
  MIC for P. aeruginosa: significantly higher MIC
IFV H1N1 PR8 strain [3]
  survival: 20%
[4]; 9-TB 1 mpkd vs control IFV-infected
  inflammatory and immune-related terms in the lungs (GSEA): significantly down-regulated
[4]; 9-TB 1 mpkd, Dox 40 mpkd
  immune-related and inflammatory gene sets in liver and kidney (GSEA): down-regulated
  lung cell type transcript profiles (GSEA): reverted the loss of multiple cell types crucial to lung function
IFV H1N1 PR8 strain [5]; 9-TB 12.5 mpkd i.p.
  mortality and decline in health: delayed mortality
IFV H1N1 PR8 strain [5]; day 5 post-infection, 9-TB 12.5 mpkd
  viral titer in the lungs: absence of an impact on the viral titer
HEK293T cells [6]
  impact on the mitonuclear protein imbalance: ~2 fold
[7]
  UPR^mt induction, dose-response (GFP signal): more efficacious at lower doses; also recorded: surpassing the robust UPR^mt caused by cco-1 RNAi feeding
[8]
  secretion of IFNβ: superior to Dox
HEK293T cells [9]
  induction of transcripts for the mammalian MSR signature genes: more prominent
[10]
  UPR^mt activation (hsp-6::gfp reporter): strongest activators
  induction of MSR and in particular mitohormesis: strongest inducer of MSR
[11]
  induction of the ISGs and MSR genes: superior to Dox

## Cc1c2c(c(O)c3c(O)cccc13)C(=O)[C@]1(O)C(=O)C(C(N)=O)=C(O)[C@@H](N(C)C)[C@@H]1C2 [ATc, anhydrotetracycline]
HEK293T cells [2]
  basal oxygen consumption rate (OCR): reduced basal oxygen consumption rate (OCR) in a dose-dependent and more pronounced fashion than Dox
HEK293T cells [6]
  impact on the mitonuclear protein imbalance: ~2 fold
[7]
  UPR^mt induction, dose-response (GFP signal): more efficacious at lower doses
[8]
  secretion of IFNβ: superior to Dox
HEK293T cells [9]
  induction of transcripts for the mammalian MSR signature genes: more prominent
[10]
  UPR^mt activation (hsp-6::gfp reporter): strongest activators
  induction of MSR and in particular mitohormesis: strongly induce MSR
[11]
  induction of the ISGs and MSR genes: superior to Dox

## C[C@H]1c2cccc(O)c2C(=O)C2=C(O)[C@]3(O)C(=O)C(C(N)=O)=C(O)[C@@H](N(C)C)[C@@H]3[C@@H](O)[C@@H]21 [Dox, doxycycline]
germ-free C57BL/6J mice
  Body weight at the time of the sacrifice: not different
IFV H1N1 PR8 strain [1]
  survival (mice recovering): 50%
Gut bacterial community
  bacterial species diversity (Shannon diversity index and richness): lower bacterial species diversity
  gut bacterial community composition (perMANOVA, NMDS): significant difference in composition
[4]; Dox 40 mpkd
  gene sets involved in cytopathic processes and fibrosis in liver and kidney: induced
